Results reported in US9155778B2, “Tripeptides that down regulate the activity of plasma membrane transporters including sodium-D-glucose cotransporter SgIt1” (JULIUS-MAXMILLIANS-UNIVERSITAT WURZBURG, priority 2005, dated 2015).
Like-named read-outs stand apart in the source and are kept apart here. Peptide text beside a SMILES is read from it.

Legend:
[1] = biological target: T1, hPEPT1 (Homo sapiens, UniProt P46059); test: Electrogenic peptide transport by hPEPT1 in oocytes, two-electrode voltage clamp; assay type: cell-based; conditions: 5 mM peptide
T1 construct: expressed in transfected cells; host or cells: Xenopus laevis oocytes (30 ng cRNA per oocyte)
T1 sequence (P46059 1-708): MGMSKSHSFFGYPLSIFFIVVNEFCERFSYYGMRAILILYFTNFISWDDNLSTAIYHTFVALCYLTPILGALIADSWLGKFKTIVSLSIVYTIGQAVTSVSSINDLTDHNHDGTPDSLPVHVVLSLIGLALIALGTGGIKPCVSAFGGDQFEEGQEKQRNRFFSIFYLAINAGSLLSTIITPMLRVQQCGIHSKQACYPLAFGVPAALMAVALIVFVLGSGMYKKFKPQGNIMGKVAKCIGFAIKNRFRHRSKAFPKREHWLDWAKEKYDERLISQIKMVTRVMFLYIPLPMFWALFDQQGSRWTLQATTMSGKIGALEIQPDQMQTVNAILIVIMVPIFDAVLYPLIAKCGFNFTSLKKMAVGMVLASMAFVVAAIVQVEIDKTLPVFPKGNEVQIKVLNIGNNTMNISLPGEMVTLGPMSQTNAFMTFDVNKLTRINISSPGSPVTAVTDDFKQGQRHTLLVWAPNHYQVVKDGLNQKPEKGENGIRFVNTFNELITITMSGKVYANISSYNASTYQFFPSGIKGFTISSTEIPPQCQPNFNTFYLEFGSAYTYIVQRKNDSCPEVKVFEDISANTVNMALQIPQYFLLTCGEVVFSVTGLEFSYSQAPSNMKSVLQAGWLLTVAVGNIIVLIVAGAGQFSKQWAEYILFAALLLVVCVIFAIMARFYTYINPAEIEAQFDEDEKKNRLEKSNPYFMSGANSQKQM
Method: (§1) The oocytes were incubated for three days at 16° C. in ORi buffer (in mM: 5 HEPES-Tris, pH 7.4, 100 NaCl, 3 KCl, 2 CaCl2, and 1 MgCl2). […] The oocytes were superfused with Ori buffer titrated to pH 6.5, the membrane potential of the oocytes was clamped to −40 mV, and inward current induced by superfusion with Ori buffer (pH 6.5) containing 5 mM of a control dipeptide or 5 mM of the tested tripeptide was measured. • (D) Expression and Purification of hRS1

[2] = test system: RS1; test: Immunostaining of RS1 at the TGN in LLC-PK1 cells after brefeldin A; assay type: cell-based; conditions: 2 μg/ml brefeldin A, 1 or 5 min, subconfluent LLC-PK1 cells
Method: For immunostaining, LLC-PK1 cells were grown on coverslips to about 50% confluence. The cells were washed twice with washing buffer (5 mM 3-(N-morpholino)propanesulfonic acid-NaOH, pH 7.4, 100 mM NaCl, 3 mM KCl, 2 mM CaCl2, and 1 mM MgCl2), fixed for 12 min with 4% (w/v) paraformaldehyde diluted in washing buffer, and washed twice again. Free aldehyde groups were quenched by 10 min incubation with washing buffer containing 40 mM glycine. For immunoreactions, washed cells were permeabilized by a 10-min incubation with washing buffer containing 0.25% (w/v) TritonX-114, and incubated over night at 4° C. with primary antibodies diluted in washing buffer. The dilutions of primary antibodies were as follows: rabbit-anti-RS1-Ab 1:50 (Valentin (2000), Biochim. Biophys. Acta, 1468, 367-380); QIS30 directed against SGLT1 1:400 (Kipp (2003), Am. J. Physiol., 285, C737-C749), sheep-anti-TGN46 1:125 (from Diagnostic International, Schriesheim, Germany). […]
The specificity of the antibodies was controlled as follows. […] In controls, no cross-reactivity of the used secondary antibodies with false primary antibodies used in the same experiment was detected. […]

[3] = biological target: T2, rbSGLT1 (Oryctolagus cuniculus, UniProt P11170); test: rbSGLT1 expressed [14C]AMG uptake in oocytes after peptide injection; assay type: cell-based, rabbit; conditions: 50 nl containing 3 mM of each peptide, 30 min, 50 μM [14C]AMG; compared with hSGLT1
T2 construct: expressed in transfected cells; host or cells: Xenopus laevis oocytes (cRNA injection)
T2 sequence (P11170 1-662): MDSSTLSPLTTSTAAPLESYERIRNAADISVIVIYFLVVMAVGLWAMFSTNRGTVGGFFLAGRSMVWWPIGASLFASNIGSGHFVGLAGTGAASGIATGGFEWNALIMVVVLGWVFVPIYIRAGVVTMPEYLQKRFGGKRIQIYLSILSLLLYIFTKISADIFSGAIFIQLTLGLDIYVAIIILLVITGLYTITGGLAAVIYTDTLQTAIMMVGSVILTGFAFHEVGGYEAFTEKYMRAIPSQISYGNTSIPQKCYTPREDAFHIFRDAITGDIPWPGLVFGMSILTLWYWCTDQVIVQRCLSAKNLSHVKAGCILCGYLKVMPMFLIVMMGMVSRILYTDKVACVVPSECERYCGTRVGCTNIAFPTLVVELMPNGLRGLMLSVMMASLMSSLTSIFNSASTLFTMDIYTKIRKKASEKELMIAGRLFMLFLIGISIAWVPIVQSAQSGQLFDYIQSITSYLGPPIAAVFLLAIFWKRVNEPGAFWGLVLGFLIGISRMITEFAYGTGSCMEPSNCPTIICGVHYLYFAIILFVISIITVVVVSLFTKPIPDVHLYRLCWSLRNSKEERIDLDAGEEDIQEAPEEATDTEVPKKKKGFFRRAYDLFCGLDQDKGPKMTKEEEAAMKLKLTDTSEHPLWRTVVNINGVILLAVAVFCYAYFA
Method: as §1
To develop drugs on the basis of the identified peptides animal models are required.

[4] = biological target: T3, hSGLT1 (Homo sapiens, UniProt P13866); test: hSGLT1 expressed [14C]AMG uptake in Xenopus oocytes after injection of hRS1 protein or peptides; assay type: cell-based
T3 construct: expressed in transfected cells; host or cells: Xenopus laevis oocytes (cRNA injection)
T3 sequence (P13866 1-664): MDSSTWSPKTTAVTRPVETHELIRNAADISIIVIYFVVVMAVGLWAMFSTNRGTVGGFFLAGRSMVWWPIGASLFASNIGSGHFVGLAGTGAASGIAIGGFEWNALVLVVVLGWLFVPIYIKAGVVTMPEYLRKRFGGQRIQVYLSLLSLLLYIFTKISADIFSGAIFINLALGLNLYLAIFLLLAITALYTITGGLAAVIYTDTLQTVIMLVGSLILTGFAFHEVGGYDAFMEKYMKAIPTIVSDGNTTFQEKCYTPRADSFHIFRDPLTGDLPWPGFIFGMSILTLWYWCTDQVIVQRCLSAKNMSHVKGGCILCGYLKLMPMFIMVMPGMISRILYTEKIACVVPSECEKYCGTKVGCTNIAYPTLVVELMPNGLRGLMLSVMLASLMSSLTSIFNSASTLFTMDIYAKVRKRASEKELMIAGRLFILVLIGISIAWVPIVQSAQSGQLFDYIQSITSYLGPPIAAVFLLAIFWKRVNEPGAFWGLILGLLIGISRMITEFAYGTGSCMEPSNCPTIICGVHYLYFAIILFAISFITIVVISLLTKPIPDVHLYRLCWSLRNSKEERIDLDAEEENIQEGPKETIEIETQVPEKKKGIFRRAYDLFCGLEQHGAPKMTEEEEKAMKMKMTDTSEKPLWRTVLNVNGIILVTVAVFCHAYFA

[5] = biological target: T4, human organic cation transporter 1 (hOCT1) (Homo sapiens, UniProt O15245); test: [14C]TEA uptake expressed by hOCT1 in oocytes; assay type: cell-based; conditions: intracellular AMG concentration of 0.1 mM
T4 construct: expressed in transfected cells; host or cells: oocytes
T4 sequence (O15245 1-554): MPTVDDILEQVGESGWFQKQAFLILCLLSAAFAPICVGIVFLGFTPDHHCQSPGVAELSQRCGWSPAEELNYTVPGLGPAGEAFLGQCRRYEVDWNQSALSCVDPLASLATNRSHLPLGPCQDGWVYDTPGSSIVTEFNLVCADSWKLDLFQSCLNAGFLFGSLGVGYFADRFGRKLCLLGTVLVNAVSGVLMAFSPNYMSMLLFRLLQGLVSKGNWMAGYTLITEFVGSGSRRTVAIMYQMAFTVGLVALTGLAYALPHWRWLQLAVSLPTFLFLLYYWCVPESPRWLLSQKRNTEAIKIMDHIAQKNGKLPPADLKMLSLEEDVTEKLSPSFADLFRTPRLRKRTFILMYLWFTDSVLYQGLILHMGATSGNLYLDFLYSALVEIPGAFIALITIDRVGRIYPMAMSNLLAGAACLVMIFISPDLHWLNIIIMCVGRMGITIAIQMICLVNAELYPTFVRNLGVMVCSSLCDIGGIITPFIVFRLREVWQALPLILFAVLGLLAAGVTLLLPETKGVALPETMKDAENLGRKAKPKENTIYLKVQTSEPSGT
Method: Corresponding measurements were performed in the presence of intracellular AMG concentrations of 0.1 mM, <0.01 mM or 10 mM.

## NCC(=O)N[C@@H](CCC(N)=O)C(=O)O [GC, glycylglutamine, reference compound] (H-Gly-Gln-OH)
[1]; pH 6.5, clamped to −40 mV
  inward current induced in oocytes expressing hPEPT1: significant inward currents
[1]; pH 6.5, data not shown
  inward current in control oocytes not injected with hPEP1-cRNA: no inward currents

## C[C@H]1CCC/C=C/[C@@H]2C[C@H](O)C[C@H]2[C@H](O)/C=C/C(=O)O1 [brefeldin A]
[2]
  RS1 immunoreactivity at the TGN / perinuclear compartment: released from the TGN

## IKPSDSDRIEP [Isoleucine-Lysine-Proline-Serine-Aspartic acid-Serine-Aspartic acid -Arginine-Isoleucine-Glutamic acid-Proline]
[3]
  effect on glucose uptake expressed by rbSGLT1: same effect
[4]
  inhibition of glucose uptake expressed by hSGLT1: about 50%

## SDSDRIEP [Serine-Aspartic acid-Serine-Aspartic acid-Arginine-Isoleucine-Glutamic acid-Proline]
[4]
  inhibition of glucose uptake expressed by hSGLT1: about 50%
  inhibition of hSGLT1 expressed AMG uptake after stimulation of protein kinase C: not changed
  inhibition of hSGLT1 expressed AMG uptake with coexpressed dominant negative mutant of dynamin I: not changed
  inhibitory effect on expression of hSGLT1 when the exocytotic pathway is blocked: could be prevented

## SVQPCQENQ [reference compound]
[4]; 50 nl/oocyte containing 1.5 mM peptide, 30 min before uptake
  inhibition of [14C]AMG uptake by injected peptide: No inhibition

B1: hRS1 protein: purified human regulatory protein RS1 with six C-terminal histidines, SEQ ID NO: 2 (protein, listed as Homo sapiens)
chain: MSSLPTSDGFNHPARSSGQSPDVGNPMSLARSVSASVCPIKPSDSDRIEPKAVKALKASAEFQLNSEKKEHLSLQDLSDHASSADHAPTDQSPAMPMQNSSEEITVAGNLEKSAERSTQGLKFHLHTRQEASLSVTSTRMHEPQMFLGEKDWHPENQNLSQVSDPQQHEEPGNEQYEVAQQKASHDQEYLCNIGDLELPEERQQNQHKIVDLEATMKGNGLPQNVDPPSAKKSIPSSECSGCSNSETFMEIDTAQQSLVTLLNSTGRQNANVKNIGALDLTLDNPLMEVETSKCNPSSEILNDSISTQDLQPPETNVEIPGTNKEYGHYSSPSLCGSCQPSVESAEESCPSITAALKELHELLVVSSKPASENTSEEVICQSETIAEGQTSIKDLSERWTQNEHLTQNEQCPQVSFHQAISVSVETEKLTGTSSDTGREAVENVNFRSLGDGLSTDKEGVPKSRESINKNRSVTVTSAKTSNQLHCTLGVEISPKLLAGEEDALNQTSEQTKSLSSNFILVKDLGQGIQNSVTDRPETRENVCPDASRPLLEYEPPTSHPSSSPAILPPLIFPATDIDRILRAGFTLQEALGALHRVGGNADLALLVLLAKNIVVPT
modifications: C-terminal His6 tag
[5]
  hOCT1 expressed [14C]TEA uptake after injection: appears to be inhibited
[4]
  inhibitory effect on expression of hSGLT1 when the exocytotic pathway is blocked: could be prevented
[4]; 5 ng hRS1 plus 1.7 ng BTXB, 30 min
  inhibition of AMG uptake by injected hRS1 protein in the presence of BTXB: no inhibition
[4]; PKC stimulated with DOG or PMA
  inhibition of hSGLT1 expressed AMG uptake after stimulation of protein kinase C: increased
[4]; dominant negative dynamin I coexpressed
  inhibition of hSGLT1 expressed AMG uptake with coexpressed dominant negative mutant of dynamin I: reduced
[4]; with clorpromazin, imipramin or filipin, data not shown
  inhibition of hSGLT1 expressed AMG uptake when endocytosis is inhibited: unchanged
